Several values for one entry are separate records, joined by “and”; a condition that tells them apart may be missing. Equal entries are not always repeated.
Tests used:
Format in all cases: cell-based, Saccharomyces cerevisiae
[1] = system: RE700A Δpdr3 tok1::PPDR5-HXT7; experiment: Growth inhibition of RE700A Δpdr3 tok1::PPDR5-HXT7 by 2-DG; details: RE700A Δpdr3 tok1::PPDR5-HXT7, maltose, 20 h 28° C.
Description: (§1) (A) Growth inhibition of RE700A i PPDR5-HXT7 (IT[PDR]), RE700A Δpdr1 tok1::PPDR5-HXT7, RE700A Δpdr3 tok1::PPDR5-HXT7 and RE700A Δpdr1,pdr3 tok1::PPDR5-HXT7 at increasing 2-DG concentrations. RE700A i PPDR5-HXT7 (IT[PDR]), RE700A Δpdr1 tok1::PPDR5-HXT7, RE700A Δpdr3 tok1::PPDR5-HXT7 and RE700A Δpdr1,pdr3 tok1::PPDR5-HXT7 were incubated 20 h at 28° C. with Maltose (2% (w/v)) as the sole carbon source and 2-DG concentrations as indicated. The optical density was measured at 600 nm every 15 minutes and the integral under the growth curve was calculated. Inhibition of growth caused by 2-DG is shown in percent. The growth of the strain RE700A tok1::PPDR5-HXT7 (IT[PDR]) was inhibited by 50% at 0.02% (w/v) 2-DG. Growth of the strains RE700A Δpdr1 tok1::PPDR5-HXT7 and RE700A Δpdr3 tok1::PPDR5-HXT7 was inhibited by 50% at 0.026% (w/v) 2-DG.
(§2) All strains expressing HXT7 were tested for sensitivity to 2-DG. The strains expressing GFP under the control of PPDR5 were additionally analysed for GFP fluorescence in comparison to RE700Ae PPDR5-GFP (strain CQ[PDR]).

[2] = system: RE700A i PPDR5-HXT7 (IT[PDR]); experiment: Growth inhibition of IT[PDR] by 2-DG; details: 20 h 28° C., maltose; for Inhibition of growth: IT[PDR], in percent of growth of RE700A
Description: (B) RE700A, ICFP and IT[PDR] were incubated 20 h at 28° C. with maltose (2% (w/v)) as the sole carbon source and the indicated 2-DG concentrations. The optical density was measured at 600 nm every 15 minutes and the integral under the growth curve is calculated. Inhibition of growth of ICFP and IT[PDR] is shown in percent of growth of RE700A. Growth of ICFP was inhibited by 15% at 0.01% (w/v) 2-DG, by 74% at 0.03% (w/v) 2-DG, by 80% at 0.05% (w/v) 2-DG and by 83% at 0.1% (w/v) 2-DG. Growth of IT[PDR] was inhibited by 21% at 0.01% (w/v) 2-DG, by 79% at 0.03% (w/v) 2-DG, by 88% at 0.05% (w/v) 2-DG and by 96% in 0.1% (w/v) 2-DG.
as §1
Strain growth: The growth of the strains in liquid medium was determined by measuring the optical density at 600 nm. To obtain growth curves, measurements were performed every 15 min. Alternatively, start and endpoint (after 12-16 h) measurements were carried out.

[3] = system: RE700A e PCDR1-HXT7 (ET[CDR1]); experiment: Growth inhibition of ET[CDR1] by 2-DG; details: liquid media, 20 h 28° C., compared to growth in the absence of 2-DG
Description: FIG. 6: Growth inhibition of RE700A, ET[CDR1] and ET[CDR2] in the presence of increasing 2-DG concentrations after 20 h incubation at 28° C. for in liquid medium. RE700A, ET[CDR1] and ET[CDR2] were incubated 20 h at 28° C. with maltose (2% (w/v)) as the sole carbon source in the presence of increasing 2-DG concentrations in liquid medium. The optical density was measured at 600 nm semi-continuously every 15 minutes and the integral under the growth curve was calculated. Inhibition of growth is shown in percent compared to growth in the absence of 2-DG. Growth of ET[CDR1] was inhibited by 92% at a 2-DG concentration in liquid media of 0.05% (w/v), by 94% at a 2-DG concentration in liquid media of 0.075% (w/v), by 93% at a 2-DG concentration in liquid media of 0.1% (w/v) and by 95% at a 2-DG concentration of 0.2% (w/v). Growth of ET[CDR2] was inhibited by 50% at a 2-DG concentration in liquid media of 0.05% (w/v), by 70% at a 2-DG concentration in liquid media of 0.075% (w/v), by 70% at a 2-DG concentration in liquid media of 0.1% (w/v) and by 84% at a 2-DG concentration of 0.2% (w/v).
(1) Episomal screening system for inhibitors of PCDR1: S. cerevisiae strain RE700A was transformed with plasmids pY-PCDR1-HXT7 and pY-PCDR1-GFP yielding strains ET[CDR1] and CQ[CDR1] (for details see Examples 1 and 2, for the complete genotype refer to Table 1). The inhibition of growth of ET[CDR1] by 2-DG was tested. The growth of this strain was inhibited to more than 90% at a 2-DG concentration of 0.05% (w/v) (FIG. 6). To screen for inhibitors of the PCDR1, the test strain ET[CDR1] can be incubated in selective YNB medium with 2% (w/v) maltose as the carbon source and 0.05% (w/v) 2-DG. Under these non-permissive conditions the growth of the test strain ET[CDR1] was inhibited when PCDR1 was active (FIG. 6).

[4] = system: RE700A Δpdr1 tok1::PPDR5-HXT7; experiment: Growth inhibition of RE700A Δpdr1 tok1::PPDR5-HXT7 by 2-DG; details: RE700A Δpdr1 tok1::PPDR5-HXT7, maltose, 20 h 28° C.
Description: as §1, §2

**Q.** With `O=CC[C@@H](O)[C@H](O)[C@H](O)CO` [2-DG, 2-deoxy-glucose] as the compound, how does the “2-DG concentration for 50% growth inhibition” value [1] read?
**A.** 0.026 % (w/v)

**Q.** And the Inhibition of growth ([2]; 0.01% (w/v) 2-DG)?
**A.** 21%

**Q.** What about the Inhibition of growth ([2]; 0.03% (w/v) 2-DG) of the same compound?
**A.** 79%

**Q.** What about the Inhibition of growth ([2]; 0.05% (w/v) 2-DG) of the same compound?
**A.** 88%

**Q.** What about the Inhibition of growth ([2]; 0.1% (w/v) 2-DG) of the same compound?
**A.** 96%

**Q.** What about the “2-DG concentration for 50% growth inhibition” value ([2]; RE700A tok1::PPDR5-HXT7 (IT[PDR]), liquid media) of the same compound?
**A.** 0.021 % (w/v) and 0.02 % (w/v)

**Q.** And the Inhibition of growth ([3]; 0.075% (w/v) 2-DG)?
**A.** 94%

**Q.** What about the Inhibition of growth ([3]; 0.1% (w/v) 2-DG) of the same compound?
**A.** 93%

**Q.** What about the Inhibition of growth ([3]; 0.2% (w/v) 2-DG) of the same compound?
**A.** 95%

**Q.** What about the “2-DG concentration for 50% growth inhibition” value [4] of the same compound?
**A.** 0.026 % (w/v)
